# Data: US7582638B2, “Pyrazole-isoquinoline urea derivatives as p38 kinase inhibitors” (Eli Lilly and Company, priority 2005, dated 2009)
# Experiments:
# pMAPKAPK2 = assay: Inhibition of p-MAPKAPK2 in vitro (anisomycin-stimulated RAW 264.7 cells, ELISA); assay type: cell-based, murine; details: Mus musculus, RAW264.7, 2 hours compound, anisomicin 100 ug/ml 30 minutes, read-out: IC50, inhibition of pMAPKAPK2 enzyme production
# Experimental: RAW 264.7 cells (a murine monocytic/macrophage line ATCC) are seeded at a density of 50,000 cells/well in 96-well plates with RPMI-1640 medium plus 10% fetal bovine serum (FBS) and allowed to settle and adhere to the bottom of the well for 48 hours. After reaching confluence, cells are treated for 2 hours with 10 serial dilutions of different compounds. A control compound is always included. After 2 hours, anisomicin (100 ug/ml) is added and cells are incubated for 30 minutes at 37° C. under a 5% CO2 atmosphere. Then, cells are fixed and treated with hydrogen peroxide in order to remove endogenous peroxidase. Finally, plates are blocked with FBS, washed, and an ELISA assay is carried out by using an antiphospho-MAPKAPK2 (Thr 334, Cell Signalling, Cat # 3041) antibody and ahP-Conjugated Secondary Antibody. This reaction is detected by using FEMTO (Pierce) which is an enhanced chemiluminiscent substrate ahP that results in rapid kinetic light output and high signal intensity. The compound exemplified in Example 12 is tested essentially as described above and is found to inhibit the pMAPKAPK2 enzyme production with an IC50 of 7 nM.
# p-MAPKAPK2 = assay: Anisomycin-stimulated mice ex-vivo phospho-MAPKAPK2 inhibition assay by flow cytometry; assay type: in vivo; details: female Balb/c mice, po, blood after 2 hours, ex vivo anisomycin 10 μg/ml, CD11b+Ly6G- cells
# Experimental: Female Balb/c mice with 8-10 week-old age are purchased from Taconic Inc. and dosed po with 0.2 mL volume of compounds at the concentrations of 30, 10, 3, 1 mg/kg. Blood is obtained from cardiac puncture after 2 hours or other indicated time periods and collected in EDTA-containing tubes. 100 μL of blood is incubated at 37° C. for 10 minutes. Whole blood is then mixed with FITC-conjugated rat anti-mouse Ly-6G mAb (1:250) and APC-conjugated rat anti-mouse CD11b mAb (1:100) and stimulated with 10 μg/ml anisomycin. Both cell surface antigen staining and anisomycin stimulation is conducted at 37° C. for 15 min and followed up with Lyse/Fix buffer (BD Biosciences, Cat# 558049) for 10 min at room temperature. Lysed blood samples are spun down at 600×g for 8 minutes at room temperature with additional wash once by 4 mL PBS. 200 μL of diluted anti-Phospho-MAPKAPK-2 (Thr334) antibody (1:100 dilution) (Cell Signaling, Cat# 3041) and mouse BD Fc Block (1:100 dilution) (BD Biosciences, 553141) in permeabilization Medium B (Caltag, Cat# GAS002S-5) are added into blood cells and incubate at room temperature for 30 min. After the incubation, 3 mL of stain/wash buffer is added and cells are spanned down as described above with additional wash with 3 ml stain/wash buffer. […] Mean fluorescence of phosphono-MapKap-K2 staining is measured on gated CD11b+Ly6G-cells. […]
# TNFα = assay: Effect on intra-articular LPS induced TNFα (synovial lavage fluid); assay type: in vivo; details: female Lewis rats, oral, intra-articular LPS 10 μg one hour later, lavage after two hours
# Experimental: Intra-articular injection of LPS into rat ankles induces the synthesis of TNFα, which can be measured in synovial lavage fluid. High levels of TNFα are detectable within 2 hours. Since the joint is the site where arthritis develops, this model can rapidly determine whether an orally administered compound has an effect on an inflammatory response in the synovium.
# Six female Lewis rats (150-200 g) are place in each treatment group. The animals are given vehicle (1% NaCarboxylnethylcellulose-0.25% Tween 80) or test compound (1 mg/kg, 3 mg/kg, 10 mg/kg, and 30 mg/kg) orally. One hour later, 10 μl LPS (10 μg) is administered intra-articularly into the right ankle of each rat, while the left ankle receives 10 μL of saline. After two hours, each ankle is lavaged with 100 μL of saline. The lavage is collected and stored at −80° C. • Group#1: Vehicle (1%/NaCMC-0.25% Tween 80, 1 mL, PO) • Group#2: Test compound (1 mg/kg, 1 mL, PO) • Group#3: Test compound (3 mg/kg, 1 mL, PO) • Group#4: Test compound (10 mg/kg, 1 mL, PO) • Group#5: Test compound (30 mg/kg, 1 mL, PO)
# TNFα is measured with a commercially available ELISA kit (R&D, RTA00).
compound,measurement,setting,value
"CS(=O)(=O)O.Cc1ccc(-n2nc(C3(C)CC3)cc2NC(=O)Nc2cnc(OC3CCN(C(=O)C4(C)CC4)CC3)c3ccccc23)cc1 [Example 12, 1-{1-[1-(1-Methyl-cyclopropanecarbonyl)-piperidin-4-yloxy]-isoquinolin-4-yl}-3-[5-(1-methyl-cyclopropyl)-2-p-tolyl-2H-pyrazol-3-yl]-urea mesylate]",IC50,pMAPKAPK2,7 nM
same,"TMED50, inhibition of p-MAPKAPK2 synthesis",p-MAPKAPK2,2.20 mg/kg
same,"TMED50, inhibition of TNFα synthesis in the synovial lavage fluid",TNFα,2.54 mg/kg
